Starred links: 1 amine or outer side, 2 acyl side, 3 side chain; linkers in the order of their positions; H or OH if unused. Positions of bridges follow the written chain, without caps; N, C: chain ends. Non-standard residues stand in square brackets, D forms with d. Residues, ends and D or L forms follow the SMILES beside them. Trp(5-F) = N[C@@H](Cc1c[nH]c2ccc(F)cc12)C(=O)O; Trp(7-aza) = N[C@@H](Cc1c[nH]c2ncccc12)C(=O)O; NMePhe(4-F) = CN[C@@H](Cc1ccc(F)cc1)C(=O)O; Phe(4-F) = N[C@@H](Cc1ccc(F)cc1)C(=O)O; Phg(2-OMe) = COc1ccccc1[C@H](N)C(=O)O; mXylylene = c1cc(C[*:1])cc(C[*:2])c1; pXylylene = c1cc(C[*:2])ccc1C[*:1]; Chg = N[C@H](C(=O)O)C1CCCCC1; Phg = N[C@H](C(=O)O)c1ccccc1; Tle = CC(C)(C)[C@H](N)C(=O)O; NMeS = CN[C@@H](CO)C(=O)O; NMeA = CN[C@@H](C)C(=O)O; Nva = CCC[C@H](N)C(=O)O; Sar = CNCC(=O)O
Each compound was assayed against C5 (Homo sapiens, UniProt P01031) (assay: Human hemolysis assay (RBC lysis assay using complete human sera)). Conditions: 7-azatryptophan variant polypeptides of R3008; inhibition of red blood cell lysis.
Assay type: cell-based
Design: with complete human sera (Complement Technology, Tyler Tex.) and polypeptides; tissue Complement Technology, Tyler Tex; host or cells: complete human serum

C5, sequence (P01031 19-1676): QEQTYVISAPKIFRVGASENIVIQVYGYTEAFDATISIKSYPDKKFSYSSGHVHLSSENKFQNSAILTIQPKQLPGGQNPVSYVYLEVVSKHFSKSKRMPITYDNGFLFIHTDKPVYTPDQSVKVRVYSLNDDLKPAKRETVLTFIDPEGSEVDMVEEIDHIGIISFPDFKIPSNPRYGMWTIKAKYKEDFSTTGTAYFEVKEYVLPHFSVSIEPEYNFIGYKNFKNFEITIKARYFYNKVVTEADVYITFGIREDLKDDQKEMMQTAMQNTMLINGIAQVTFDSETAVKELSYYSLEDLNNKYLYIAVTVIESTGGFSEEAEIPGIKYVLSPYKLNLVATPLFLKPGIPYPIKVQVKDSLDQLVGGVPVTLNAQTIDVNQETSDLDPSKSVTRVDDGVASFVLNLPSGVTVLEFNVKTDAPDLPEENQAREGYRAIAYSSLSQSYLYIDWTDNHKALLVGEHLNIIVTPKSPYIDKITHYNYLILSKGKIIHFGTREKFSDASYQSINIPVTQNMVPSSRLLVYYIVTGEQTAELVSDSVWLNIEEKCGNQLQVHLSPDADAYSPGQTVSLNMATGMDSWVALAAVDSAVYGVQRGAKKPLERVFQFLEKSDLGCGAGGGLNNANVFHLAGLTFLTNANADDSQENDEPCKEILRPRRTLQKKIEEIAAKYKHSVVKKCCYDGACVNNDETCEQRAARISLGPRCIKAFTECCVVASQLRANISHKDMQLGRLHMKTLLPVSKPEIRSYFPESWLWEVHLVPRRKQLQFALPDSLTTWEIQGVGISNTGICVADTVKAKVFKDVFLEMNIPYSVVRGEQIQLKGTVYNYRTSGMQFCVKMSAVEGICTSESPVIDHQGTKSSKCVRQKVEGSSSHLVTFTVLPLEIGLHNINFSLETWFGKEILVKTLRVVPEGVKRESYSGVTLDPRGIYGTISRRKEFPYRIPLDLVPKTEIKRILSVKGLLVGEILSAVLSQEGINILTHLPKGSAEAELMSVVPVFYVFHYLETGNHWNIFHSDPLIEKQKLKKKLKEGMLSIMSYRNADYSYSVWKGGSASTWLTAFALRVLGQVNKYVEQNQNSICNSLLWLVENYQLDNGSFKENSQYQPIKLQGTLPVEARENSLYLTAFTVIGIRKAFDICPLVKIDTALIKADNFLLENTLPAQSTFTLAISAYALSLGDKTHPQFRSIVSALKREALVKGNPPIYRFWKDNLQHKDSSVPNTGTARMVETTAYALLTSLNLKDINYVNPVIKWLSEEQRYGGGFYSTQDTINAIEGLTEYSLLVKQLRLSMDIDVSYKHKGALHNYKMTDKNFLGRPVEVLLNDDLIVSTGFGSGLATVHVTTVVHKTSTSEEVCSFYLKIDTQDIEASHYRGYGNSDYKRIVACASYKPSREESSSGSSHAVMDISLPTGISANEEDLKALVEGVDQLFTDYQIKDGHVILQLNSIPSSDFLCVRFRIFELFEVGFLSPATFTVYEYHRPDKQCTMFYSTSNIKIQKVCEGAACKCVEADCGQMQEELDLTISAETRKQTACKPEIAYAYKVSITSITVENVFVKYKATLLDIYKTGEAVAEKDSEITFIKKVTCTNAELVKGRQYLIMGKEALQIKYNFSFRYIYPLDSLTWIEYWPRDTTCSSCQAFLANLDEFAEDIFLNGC

Row | Compound | IC50
1 | CCC[C@H](NC(=O)[C@@H]1CSCc2cccc(c2)CSC[C@H](NC(=O)[C@H](CCC)NC(C)=O)C(=O)N[C@@H](c2ccccc2)C(=O)N[C@@H]([C@@H](C)O)C(=O)N[C@@H](Cc2c[nH]c3ccc(F)cc23)C(=O)N[C@@H](CCC(=O)O)C(=O)N[C@@H](Cc2ccc(O)cc2)C(=O)N(C)[C@@H](CO)C(=O)N[C@@H](C)C(=O)N1)C(N)=O [Compound R3088, [mXyly1(2,10)]Ac-Nvl-C-Phg-T-(5-F)W-E-Y-(N-Me)S-A-C-Nvl-NH2] (Ac-[Nva]C[Phg]T[Trp(5-F)]EY[NMeS]AC[Nva]-NH2; linker 2-10 via mXylylene) | > 100 µM

Same assay, conditions: inhibition of lysis of antibody-sensitized sheep erythrocytes, complete human sera

Row | Compound | IC50
2 | CCC[C@H](N)C(=O)N[C@H]1CSCc2cccc(c2)CSC[C@@H](C(N)=O)NC(=O)CN(C)C(=O)[C@H](Cc2ccc(F)cc2)N(C)C(=O)[C@H](Cc2c[nH]cn2)NC(=O)[C@H](CO)N(C)C(=O)[C@H](Cc2ccc(F)cc2)N(C)C(=O)[C@H](c2ccccc2)NC(=O)[C@H](CO)N(C)C(=O)[C@H](Cc2ccc(O)cc2)NC1=O [Compound R3051, [mXylyl(2,11)]Nvl-C-Y-(N-Me)S-Phg-(N-Me-4-F)Phe-(N-Me)S-H-(N-Me-4-F)-Phe-(N-Me)G-C-NH2] (H-[Nva]CY[NMeS][Phg][NMePhe(4-F)][NMeS]H[NMePhe(4-F)][Sar]C-NH2; linker 2-11 via mXylylene) | > 100 µM
3 | CCC[C@H](N)C(=O)N[C@H]1CSCc2cccc(c2)CSC[C@@H](C(=O)N[C@H](C(=O)N(C)[C@@H](C)C(N)=O)c2ccccc2)NC(=O)[C@H](CC(C)C)NC(=O)CN(C)C(=O)[C@H](CC(N)=O)NC(=O)[C@H](c2ccccc2)NC(=O)[C@H](C(C)(C)C)NC(=O)[C@H](Cc2ccc(O)cc2)NC1=O [Compound R3052, [mXylyl(2,9)]Nvl-C-Y-Tbg-Phg-N-(N-Me)G-L-C-Phg-(N-Me)A-NH2] (H-[Nva]CY[Tle][Phg]N[Sar]LC[Phg][NMeA]-NH2; linker 2-9 via mXylylene) | > 100 µM
4 | CCC[C@H](NC(=O)[C@@H](NC(=O)[C@@H]1CCCN1C(=O)[C@H](Cc1ccc(O)cc1)NC(=O)[C@H](CCC(=O)O)NC(=O)[C@H](Cc1c[nH]c2ncccc12)NC(=O)[C@H](Cc1ccc(O)cc1)NC(=O)[C@@H](NC(=O)[C@H](CC(=O)O)NC(=O)[C@@H]1CSCc2cccc(c2)CSC[C@H](NC(=O)[C@@H](N)CCSC)C(=O)N[C@@H](C(C)C)C(=O)N[C@@H](CCC(=O)O)C(=O)N[C@@H](CCCNC(=N)N)C(=O)N[C@@H](Cc2ccccc2)C(=O)N1)C(C)(C)C)c1ccccc1)C(N)=O [Compound R3057, [mXylyl(2,7)]M-C-V-E-R-F-C-D-Tbg-Y-azaTrp-E-Y-P-Phg-Nvl-NH2] (H-MCVERFCD[Tle]Y[Trp(7-aza)]EYP[Phg][Nva]-NH2; linker 2-7 via mXylylene) | 0.0124 µM
5 | CCC[C@H](NC(=O)[C@@H]1CSCc2ccc(cc2)CSC[C@H](NC(=O)[C@H](CCC)NC(C)=O)C(=O)N[C@@H](C2CCCCC2)C(=O)N[C@@H]([C@@H](C)O)C(=O)N[C@@H](Cc2c[nH]c3ncccc23)C(=O)N[C@@H](CCC(=O)O)C(=O)N[C@@H](Cc2ccc(O)cc2)C(=O)N(C)[C@@H](CO)C(=O)N[C@@H](Cc2c[nH]cn2)C(=O)N1)C(N)=O [Compound R3058, [pXylyl(2,10)]Ac-Nvl-C-Chg-T-azaTrp-E-Y-(N-Me)S-H-C-Nvl-NH2] (Ac-[Nva]C[Chg]T[Trp(7-aza)]EY[NMeS]HC[Nva]-NH2; linker 2-10 via pXylylene) | > 10 µM
6 | CCC[C@H](NC(=O)[C@@H]1CSCc2ccc(cc2)CSC[C@H](NC(=O)[C@H](CCC)NC(C)=O)C(=O)N[C@@H](c2ccccc2)C(=O)N[C@@H]([C@@H](C)O)C(=O)N[C@@H](Cc2c[nH]c3ncccc23)C(=O)N[C@@H](CCC(=O)O)C(=O)N[C@@H](Cc2ccc(O)cc2)C(=O)N2CCC[C@H]2C(=O)N[C@@H](Cc2c[nH]cn2)C(=O)N1)C(N)=O [Compound R3065, [pXy1y1(2,10)]Ac-Nvl-C-PhE-T-azaTrp-E-Y-P-H-C-Nvl-NH2] (Ac-[Nva]C[Phg]T[Trp(7-aza)]EYPHC[Nva]-NH2; linker 2-10 via pXylylene) | 0.394 µM
7 | CCC[C@H](NC(C)=O)C(=O)N[C@@H](CCC)C(=O)N[C@@H](Cc1ccc(O)cc1)C(=O)N[C@@H](CCC(=O)O)C(=O)N[C@@H](CC(N)=O)C(=O)N[C@H](C(=O)N[C@@H](Cc1ccc(O)cc1)C(=O)N[C@@H](Cc1c[nH]c2ncccc12)C(=O)N[C@@H](CCC(=O)O)C(=O)N[C@@H](Cc1ccc(O)cc1)C(=O)N1CCC[C@H]1C(=O)N[C@H](C(=O)N[C@@H](CCC)C(=O)N[C@@H](CCCCN)C(N)=O)C1CCCCC1)C(C)(C)C [Compound R3072, Ac-Nvl-Nvl-Y-E-N-Tbg-Y-azaTrp-E-Y-P-Chg-Nvl-K-NH2] (Ac-[Nva][Nva]YEN[Tle]Y[Trp(7-aza)]EYP[Chg][Nva]K-NH2) | 0.0269 µM
8 | CCC[C@H](NC(=O)[C@@H]1CSCc2cccc(c2)CSC[C@H](NC(=O)[C@H](CCC)NC(C)=O)C(=O)N[C@@H](c2ccccc2)C(=O)N[C@@H]([C@@H](C)O)C(=O)N[C@@H](Cc2c[nH]c3ncccc23)C(=O)N[C@@H](CCC(=O)O)C(=O)N[C@@H](Cc2ccc(F)cc2)C(=O)N(C)[C@@H](CO)C(=O)N[C@@H](Cc2c[nH]cn2)C(=O)N1)C(N)=O [Compound R3073, [mXyly1(2,10)]Ac-Nvl-C-Phg-T-azaTrp-E-Phe(4-F)-(N-Me)S-H-C-Nvl-NH2] (Ac-[Nva]C[Phg]T[Trp(7-aza)]E[Phe(4-F)][NMeS]HC[Nva]-NH2; linker 2-10 via mXylylene) | 0.403 µM
9 | CCC[C@H](NC(=O)[C@@H]1CSCc2cccc(c2)CSC[C@H](NC(=O)[C@H](CCC)NC(C)=O)C(=O)N[C@@H](c2ccccc2)C(=O)N[C@@H]([C@@H](C)O)C(=O)N[C@@H](Cc2c[nH]c3ncccc23)C(=O)N[C@@H](CCC(=O)O)C(=O)N[C@@H](Cc2ccc(OC)cc2)C(=O)N(C)[C@@H](CO)C(=O)N[C@@H](Cc2c[nH]cn2)C(=O)N1)C(N)=O [Compound R3074, [mXylyl(2,10)]Ac-Nvl-C-Phg-T-azaTrp-E-Tyr(OMe)-(N-Me)S-H-C-Nvl-NH2] (Ac-[Nva]C[Phg]T[Trp(7-aza)]EY(Me)[NMeS]HC[Nva]-NH2; linker 2-10 via mXylylene) | 0.308 µM
10 | CCC[C@H](N)C(=O)N[C@H]1CSCc2cccc(c2)CSC[C@@H](C(N)=O)NC(=O)CNC(=O)[C@H](Cc2ccc(F)cc2)N(C)C(=O)[C@H](Cc2c[nH]cn2)NC(=O)[C@H](CO)N(C)C(=O)[C@H](Cc2ccc(F)cc2)N(C)C(=O)[C@H](c2ccccc2)NC(=O)[C@H](CO)N(C)C(=O)[C@H](Cc2ccc(O)cc2)NC1=O [Compound R3075, [mXylyl(2,11)]Nvl-C-Y-(N-Me)S-Phg-(N-Me-4-F)Phe-(N-Me)S-H-(N-Me-4-F)Phe-G-C-NH2] (H-[Nva]CY[NMeS][Phg][NMePhe(4-F)][NMeS]H[NMePhe(4-F)]GC-NH2; linker 2-11 via mXylylene) | > 75 µM
11 | CCC[C@H](NC(=O)[C@@H]1CSCc2cccc(c2)CSC[C@H](NC(=O)[C@H](CCC)NC(C)=O)C(=O)N[C@@H](c2ccccc2)C(=O)N[C@@H]([C@@H](C)O)C(=O)N[C@@H](Cc2c[nH]c3ncccc23)C(=O)N[C@@H](CCC(=O)O)C(=O)N[C@@H](Cc2ccc(O)cc2)C(=O)N(C)[C@@H](CO)C(=O)N1)C(N)=O [Compound R3080, [mXylyl(2,9)]Ac-Nvl-C-Pha-T-azaTrp-E-Y-(N-Me)S-C-Nvl-NH2] (Ac-[Nva]C[Phg]T[Trp(7-aza)]EY[NMeS]C[Nva]-NH2; linker 2-9 via mXylylene) | > 50 µM
12 | CCC[C@H](NC(=O)[C@@H]1CSCc2cccc(c2)CSC[C@H](NC(=O)[C@@H](NC(C)=O)C(C)C)C(=O)N[C@@H](c2ccccc2)C(=O)N[C@@H]([C@@H](C)O)C(=O)N[C@@H](Cc2c[nH]c3ncccc23)C(=O)N[C@@H](CCC(=O)O)C(=O)N[C@@H](Cc2ccc(O)cc2)C(=O)N(C)[C@@H](CO)C(=O)N[C@@H](C)C(=O)N1)C(N)=O [Compound R3083, [mXylyl(2,10)]Ac-V-C-Phg-T-azaTrp-E-Y-(N-Me)S-A-C-Nvl-NH2] (Ac-VC[Phg]T[Trp(7-aza)]EY[NMeS]AC[Nva]-NH2; linker 2-10 via mXylylene) | > 25 µM
13 | CCC[C@H](NC(=O)[C@@H]1CSCc2cccc(c2)CSC[C@H](NC(=O)[C@H](CCC)NC(C)=O)C(=O)N[C@@H](c2ccccc2)C(=O)N[C@@H]([C@@H](C)O)C(=O)N[C@@H](Cc2c[nH]c3ncccc23)C(=O)N[C@@H](CCC(=O)O)C(=O)N[C@@H](Cc2ccc(O)cc2)C(=O)N[C@@H](CO)C(=O)N[C@@H](C)C(=O)N1)C(N)=O [Compound R3084, [mXylyl(2,10)]Ac-Nvl-C-Phg-T-azaTrp-E-Y-S-A-C-Nvl-NH2] (Ac-[Nva]C[Phg]T[Trp(7-aza)]EYSAC[Nva]-NH2; linker 2-10 via mXylylene) | > 100 µM
14 | CCC[C@H](NC(=O)[C@@H]1CSCc2cccc(c2)CSC[C@H](NC(=O)[C@H](CCC(=O)O)NC(=O)[C@H](Cc2ccc(O)cc2)NC(=O)[C@H](CO)NC(=O)[C@H](CCC)NC(C)=O)C(=O)N[C@@H](C(C)(C)C)C(=O)N[C@@H](Cc2ccc(O)cc2)C(=O)N[C@@H](Cc2c[nH]c3ncccc23)C(=O)N[C@@H](CCC(=O)O)C(=O)N[C@@H](Cc2ccc(O)cc2)C(=O)N2CCC[C@H]2C(=O)N[C@@H](C2CCCCC2)C(=O)N1)C(N)=O [Compound R3086, [mXylyl(5,13)]Ac-Nvl-S-Y-E-C-Tbg-Y-azaTrp-E-Y-P-Chg-C-Nvl-NH2] (Ac-[Nva]SYEC[Tle]Y[Trp(7-aza)]EYP[Chg]C[Nva]-NH2; linker 5-13 via mXylylene) | > 50 µM
15 | CCC[C@H](NC(=O)[C@@H]1CSCc2cccc(c2)CSC[C@H](NC(=O)[C@H](CCC)NC(C)=O)C(=O)N[C@@H](c2ccccc2OC)C(=O)N[C@@H]([C@@H](C)O)C(=O)N[C@@H](Cc2c[nH]c3ncccc23)C(=O)N[C@@H](CCC(=O)O)C(=O)N[C@@H](Cc2ccc(O)cc2)C(=O)N(C)[C@@H](CO)C(=O)N[C@@H](Cc2c[nH]cn2)C(=O)N1)C(N)=O [Compound R3087, [mXylyl(2,10)]Ac-Nvl-C-(2-OMe)Phg-T-azaTrp-E-Y-(N-Me)S-H-C-Nvl-NH2] (Ac-[Nva]C[Phg(2-OMe)]T[Trp(7-aza)]EY[NMeS]HC[Nva]-NH2; linker 2-10 via mXylylene) | > 25 µM
16 | CCC[C@H](NC(=O)[C@@H]1CSCc2cccc(c2)CSC[C@H](NC(=O)[C@H](CCC)NC(C)=O)C(=O)N[C@@H](c2ccccc2)C(=O)N[C@@H]([C@@H](C)O)C(=O)N[C@@H](Cc2c[nH]c3ccc(F)cc23)C(=O)N[C@@H](CCC(=O)O)C(=O)N[C@@H](Cc2ccc(O)cc2)C(=O)N(C)[C@@H](CO)C(=O)N[C@@H](C)C(=O)N1)C(N)=O [Compound R3088, [mXyly1(2,10)]Ac-Nvl-C-Phg-T-(5-F)W-E-Y-(N-Me)S-A-C-Nvl-NH2] (Ac-[Nva]C[Phg]T[Trp(5-F)]EY[NMeS]AC[Nva]-NH2; linker 2-10 via mXylylene) | > 100 µM

— patent US10208089B2, “Modulation of complement activity” (priority 2014, dated 2019)
